What was measured:
[1] = system: downstream targets of PI3K/mTOR in T47D (with PIK3CA mutation, breast tumor cell line); experiment: Western blot detection of downstream targets of PI3K/mTOR in T47D cells; assay type: cell-based; conditions: read-out: T47D (with PIK3CA mutation, breast tumor cell line), IC50 (nM) (using Westin blot to detect the downstream targets of PI3K/mTOR)
Protocol: a. Harvest Cells and Run Cell Extracts on a SDS-PAGE Gel
Cells were harvested bytrypsinization and centrifugation at 500 rpm for 5 min and the supernatant was removed. Cell pellet was resuspended with appropriate volume of 1× lysis buffer (10× lysis buffer from Cell Signaling Technology, Catalog #9803, Boston, Mass.) containing protease inhibitors (Protease Inhibitor Cocktail Tablets, Roche, cat#11 697 498 001 and PMSF, NaF, Na3VO3, Leupeptin and pepstatin A), then directly sonicated the suspension for 5 seconds. Protein concentration was measured using Pierce BAC protein assay kit (catalog #23227). The protein sample was read with EL800 of Bio-TEK at […] wave length and the concentration was calculated. 60 ug protein of each sample was loaded on an 8-15% SDS-PAGE and run at 120V for an appropriate period till the dye front reached the bottom of the gel. […]
b. Transfer the Protein from the Gel to a Membrane
Placed a cassette using pre-wet Watman paper(bio-rad, catalog #1703932), gel and membrane (PVDF membrane with pre-soak in methanol for 3 min, then equilibrated in transfer buffer for 5 min), and performed the transfer using bio-rad transfer system at 100v for 1.5 hr at cool room.
Removed the membrane from the transfer apparatus and placed it in the blocking buffer [5% non-fat dry milk in 1×TBS-T containing NaCl 8 g, Tris-Cl 2.37 g, TrisBase 0.6 g in 1 liter of water (pH 7.6) and 1 ml of Tween-20]. Incubated the membrane in the blocking buffer on a shaker for 0.5-1 hr at room temperature.
Diluted the primary antibody at 1:1000 using TBS-T containing 5% non-fat dry milk, and incubated the membrane in the primary antibody solution on a shaker overnight at 4° C. Then removed the primary antibody solution, and washed the membrane with 1×TBS-T 3 times for 10 min each time. e. Secondary Antibody, Substrate Addition and Film Explosure
Diluted the second antibody (cell signaling technology cat#7076 anti-mouse IgG, HRP-linked antibody, or cat#7074, anti-rabbit IgG, HRP-linked antibody) at 1:3000 using TBS-T containing 5% non-fat dry milk. Decanted the wash buffer and incubated the membrane in the prepared secondary antibody solution on shaker for 2 hr at room temperature. Decanted the secondary antibody solution and washed thoroughly with 1×TBS-T for 3 times for 10 min each time. Prepared for substrate solution: luminal/enhancer solution mix with stable peroxide solution (Amersham ECL Plus™ Western Blotting Detection Reagents. Cat#: RPN2132). Total amount of substrate solution needed was approximate 2 ml per membrane. Placed the membrane with the protein side up on a flat Saran wrap, and dropped the prepared substrate solution over the membrane, and incubated the membrane for 2 minutes. […]

[2] = system: LNCaP (with PTEN-null, prostate tumor cell line); experiment: Cell-based viability assay (trypan blue exclusion) in LNCaP cells; conditions: 72 hours treatment, read-out: LNCaP (with PTEN-null, prostate tumor cell line), IC50 (nM) (using cell trypan blue exclusion assay to detect the cell viability)
Protocol: 1. Cell-Based Assays: Cells were seeded in 24-well plates with a concentration of 10×10^5 cells/mL/well, and treated with the designated agents in the next day. After 72 hours treatment, cells were harvested and stained using the trypan blue exclusion method and measured using the TC-10™ automated cell counter (Bio-rad).

| SMILES | IC50 [1] [nM] | IC50 [2] [nM] |
| --- | --- | --- |
| COc1ncc(-c2cc3c(C)nc(N)nc3n([C@H]3CC[C@H](OCCO)CC3)c2=O)cc1NS(=O)(=O)c1ccccc1 [Example 1, N-(5-(2-amino-8-(trans-4-(2-hydroxyethoxy)-cyclohexyl)-4-methyl-7-oxo-7,8-dihydropyrido[2,3-d]pyrimidin-6-yl)-2-methoxypyridin-3-yl)benzenesulfonamide] | 12 | 35 |
| COc1ncc(-c2cc3c(C)nc(N)nc3n([C@H]3CC[C@H](OCCO)CC3)c2=O)cc1NS(C)(=O)=O [Example 2, N-(5-(2-amino-8-(trans-4-(2-hydroxyethoxy)cyclohexyl)-4-methyl-7-oxo-7,8-dihydropyrido[2,3-d]pyrimidin-6-yl)-2-methoxypyridin-3-yl)methanesulfonamide] |  | 150 |
| COc1ncc(-c2cc3c(C)nc(N)nc3n([C@H]3CC[C@H](OCCO)CC3)c2=O)cc1NS(=O)(=O)c1ccc(F)cc1 [Example 5, N-(5-(2-amino-8-(trans-4-(2-hydroxyethoxy)cyclohexyl)-4-methyl-7-oxo-7,8-dihydropyrido[2,3-d]pyrimidin-6-yl)-2-methoxypyridin-3-yl)-4-fluorobenzenesulfonamide] |  | 55 |
| COc1ncc(-c2cc3c(C)nc(N)nc3n([C@H]3CC[C@H](OCCO)CC3)c2=O)cc1NS(=O)(=O)c1c(F)cccc1F [Example 6, N-(5-(2-amino-8-(trans-4-(2-hydroxyethoxy)cyclohexyl)-4-methyl-7-oxo-7,8-dihydropyrido[2,3-d]pyrimidin-6-yl)-2-methoxypyridin-3-yl)-2,6-difluorobenzenesulfonamide] |  | 60 |
| COc1ncc(-c2cc3c(C)nc(N)nc3n([C@H]3CC[C@H](OCCO)CC3)c2=O)cc1NS(=O)(=O)c1ccc(C)cc1 [Example 8, N-(5-(2-amino-8-(trans-4-(2-hydroxyethoxy)cyclohexyl)-4-methyl-7-oxo-7,8-dihydropyrido[2,3-d]pyrimidin-6-yl)-2-methoxypyridin-3-yl)-4-methylbenzenesulfonamide] | 15 | 45 |

The remaining compounds from weak to strong by IC50 [2], led by results:

| IC50 [1] [nM] | IC50 [2] [nM] | SMILES |
| --- | --- | --- |
|  | 140 | CCS(=O)(=O)Nc1cc(-c2cc3c(C)nc(N)nc3n([C@H]3CC[C@H](OCCO)CC3)c2=O)cnc1OC [Example 3, N-(5-(2-amino-8-(trans-4-(2-hydroxyethoxy)cyclohexyl)-4-methyl-7-oxo-7,8-dihydropyrido [2,3-d]pyrimidin-6-yl)-2-methoxypyridin-3-yl)ethanesulfonamide] |
|  | 130 | COc1ncc(-c2cc3c(C)nc(N)nc3n([C@H]3CC[C@H](OCCO)CC3)c2=O)cc1NS(=O)(=O)C1CC1 [Example 4, N-(5-(2-amino-8-(trans-4-(2-hydroxyethoxy)cyclohexyl)-4-methyl-7-oxo-7,8-dihydropyrido[2,3-d]pyrimidin-6-yl)-2-methoxypyridin-3-yl)cyclopropanesulfonamide] |
| 85 | 75 | COc1ccc(-c2cc3c(C)nc(N)nc3n(C3CCC(OCCO)CC3)c2=O)cn1 (stereo not shown) [PF-1502, reference compound] |
| 12 | 40 | COc1ccc(S(=O)(=O)Nc2cc(-c3cc4c(C)nc(N)nc4n([C@H]4CC[C@H](OCCO)CC4)c3=O)cnc2OC)cc1 [Example 7, N-(5-(2-amino-8-(trans-4-(2-hydroxyethoxy)cyclohexyl)-4-methyl-7-oxo-7,8-dihydropyrido[2,3-d]pyrimidin-6-yl)-2-methoxypyridin-3-yl)-4-methoxybenzenesulfonamide] |
